Laboratory results from US20070190191A1, “Use of geraniol in antitumoral therapy” (priority 2003, published 2007).
Where two headings read alike, the source gives them in different places.

What was measured:
[1] = system: Caco-2 cells; test: Electron microscopy of Caco-2 cell morphological differentiation; assay type: cell-based, human; conditions: confluent Caco-2 cells (7 days after seeding) treated 4 days; geraniol 400 μM, 5-FU 5 μM
Protocol: Caco-2 and SW620 cells were obtained from the European Collection of Animal Cell Culture (CERDIC, Sophia Antipolis, France) and were cultured in 75-cm^2 Falcon flasks containing Dulbecco's modified Eagle's medium (DMEM) and 25 mM glucose supplemented with 10% heat-inactivated horse serum, 100 U/ml penicillin, and 100 μg/ml streptomycin. Cells were incubated at 37° C. in a humidified atmosphere of 5% CO2 and subcultured after trypsinization (0.5% trypsin/2.6 mM EDTA). They were used for up to 30 to 40 passages.
(§1) In all experiments, cells were seeded at 6×10^5 cells on culture dishes (100 mm in diameter), or at 4500 cells/well in 96-well plates. Caco-2 and SW620 cells were grown in DMEM supplemented with 3% horse serum, 5 μg/ml transferrin, 5 ng/ml selenium, and 10 μg/ml insulin (TSI defined medium; Invitrogen, SARL, Cergy-Pontoise, France). Geraniol (Sigma-Aldrich, Saint Louis, Mo.) was dissolved in absolute ethanol, and 5-FU (Teva Pharmachemie B.V., Mijdrecht, The Netherlands) was diluted in PBS at a final concentration of 50 mg/ml. The compounds were added to the culture medium 24 h or 7 days after cell seeding (final concentration of ethanol, 0.1%).
In all experimental conditions, culture medium, geraniol, and 5-FU were replaced every 24 h. […]

[2] = system: confluent Caco-2 cells; test: Cell growth (sulforhodamine B), confluent Caco-2 cells; assay type: cell-based, human; conditions: for cell loss: confluent Caco-2, 8 days treatment, geraniol 400 μM (IC30), 5-FU 1 μM
Protocol: as §1
In all experimental conditions, culture medium, geraniol, and 5-FU were replaced every 24 h. Cells were harvested after various times, washed three times with phosphate-buffered saline (PBS) (pH 7.2), and kept at −70° C. until assays were performed.
(§2) Cells were seeded in 96-well plates and incubated for different times. Cell growth was stopped by addition of 50 μl of trichloroacetic acid (50%, v/v), and the protein content of each well was determined by staining with sulforhodamine B (Skehan et al., 1990): Absorbance was determined at 490 nm.
The effects of increasing doses of 5-FU alone or in combination with geraniol were determined after treatment for 8 days. […] Geraniol and 5-FU were replaced every 24 h.
Statistical differences between control and geraniol-treated cells were evaluated using the Student's t test. Differences were considered to be significant for values of p<0.05.

[3] = system: growing Caco-2 cells; test: Cell growth (sulforhodamine B), exponentially growing Caco-2 cells; assay type: cell-based, human
Protocol: as §1, §2
(§3) The comparative effects of geraniol and 5-FU were studied on exponentially growing Caco-2 and SW620 cells. Cells were cultured as described in Example 1. […]
(§4) The effects of graded doses of 5-FU alone or in combination with geraniol were determined. […]

[4] = system: SW620 cells; test: Cell growth (sulforhodamine B), growing SW620 cells; assay type: cell-based; conditions: Homo sapiens, SW-620, 192 h, 8 days treatment, in the combination geraniol at IC30, read-out: IC50 5-FU, SW620
Protocol: as §1, §2, §3, §4

[5] = system: Caco-2 cells; test: Apoptosis: DNA fragmentation ladder and annexin V-FITC labeling; assay type: cell-based, human; conditions: exponentially growing and confluent Caco-2 cells, 24 h; 5-FU 5 μM, geraniol IC30 400 μM
Protocol: After trypsinization, cells were collected by centrifugation and stored at −80° C. Apoptotic DNA was separated from genomic DNA, using the Suicide Track DNA ladder kit (Oncogene Research Products, Cambridge, Mass.). DNA fragments were separated by electrophoresis and stained with ethidium bromide. Apoptosis was further tested by evaluating phosphatidylserine membrane externalization by measuring annexin V-conjugated fluorescein isothiocyanate (FITC) binding using an Annexin V-FITC kit (Medsystems Diagnostics GmbH, Vienna, Austria). Briefly, cells were washed in cold PBS without calcium and, for each sample, 5×10^5 cells were resuspended in 100 μl of reaction buffer (10 μl of binding buffer 10-fold concentrated, 10 μl of propidium iodide, 1 μl of annexin V-FITC, and 79 μl of deionized water. After incubation for 15 min in the dark at room temperature, each sample was diluted with binding buffer to obtain an appropriate final volume for flow cytometry.

[6] = system: human colonic tumors TC-118; test: Growth of 5-FU-resistant human colonic tumors transplanted in nude mice; assay type: in vivo, Swiss nu/nu mice; conditions: day 14
Protocol: The effect of geraniol and 5-FU were evaluated in vivo on the growth of 5-FU-resistant human colonic tumors ([…]) transplanted in Swiss nu/nu mice. TC 118 is the hepatic metastasis of a primary human colorectal tumor is used as xénogreffe. Fresh fragments of the tumor are implanted in the subcutaneous tissue of female Swiss nulnu mice of from 5 to 6 weeks. The appearance of the tumor is watched by a bi-weekly exam of mice and the time of appearance is registered. Tumors are detected by palpation as soon as they measure approximately 3×3 mm (that is approximately 15 mm^3). […] Tumors are measured with a calliper rule, 3 times a week, until the sacrifice of the animal. Two perpendicular diameters are measured and the volumes of tumors are calculated according to the following equation: V=A×B^2/2 where A represents the large diameter and B the small diameter. The relative tumoral volume (VTR) is calculated according to the formula: VTR=Volume at day D/Initial volume […] When these molecules were given in combination, they were injected simultaneously. A control group was treated with excipient (NaCl 0.9%). The mean value of the VTR was calculated for every group on every day corresponding to the measure of tumors. The curves of tumoral growth were obtained in every experimental group or for every individual tumor by reporting the values of the VTR as a function of time (expressed in days after the beginning of the treatment). The measures were individually recorded, allowing a follow-up of the tumoral growth. […] Mice not presenting tumors were sacrificed at the same time. The percentage of inhibition of the tumoral growth was calculated at day 14 for the various treatments, according to the formula: (VTR of treated mice/VTR of control mice)×100. Results

[7] = system: Caco-2 cells; test: Caco-2 cell growth with CPT-11 and geraniol; assay type: cell-based; conditions: Homo sapiens, 192 h, Caco-2, 8 days treatment
Protocol: as §2
The effect of various doses of CPT-11 alone or in combination with geraniol was determined after 8 days of treatment of Caco-2 cells. Concentrations of CPT-11 of from 0.2 to 0.8 μM were tested and geraniol was used at a concentration which induces a 10% inhibition of the cell growth (IC10).

[8] = system: Caco-2 cells; test: Brush-border membrane hydrolase assays (functional differentiation); assay type: cell-based; conditions: Homo sapiens, 168 h, 400 μM geraniol, Caco-2 at confluency (7 days after seeding), brush-border membranes
Protocol: Brush-border membranes were isolated as described by Schmitz et al. (1973). Sucrase activity was determined according to Messer and […] (1966) and lactase activity according to Koldovsky et al. (1969). Alkaline phosphatase activity was assayed by the method of Garen and […] (1960), and N-aminopeptidase activity was determined according to Maroux et al. (1973).

[9] = system: Caco-2 cells; test: Cytotoxicity by LDH release into the culture medium; assay type: cell-based, human; conditions: confluent Caco-2 (7 days after seeding), 4 days treatment, geraniol alone 400 μM
Protocol: To determine cytotoxicity, cells (4×10^5/well) were seeded on culture dishes (100 nm diameter) and incubated in DMEM culture medium supplemented with 3% FCS. On the 7th day after seeding, cells were incubated with 5-FU (5 μM) alone or together with geraniol (IC30: 400 μM) and 5-FU for 1, 2, 3, and 4 days. Then, cytotoxicity was assessed by determining the release of lactate dehydrogenase (LDH) (Skehan et al., 1990) into the culture medium using the Cyto Tox R nonradioactive cytotoxicity assay kit (Promega, Madison, Wis.).

Row | IC50 ([2]; Homo sapiens, Caco-2, 192 h, 8 days treatment, in the combination geraniol at its IC30 (400 μM), read-out: IC50 5-FU, Caco-2 Confluent) | IC50 [4] | IC50 ([7]; in the combination geraniol at IC10, read-out: IC50 CPT-11) | IC50 ([7]; in the combination CPT-11 at IC10, read-out: IC50 Geraniol) | SMILES | brush-border microvilli (transmission electron microscopy) [1] | cell loss [2] | IC50 ([3]; Homo sapiens, Caco-2, 8 days treatment from 24 h after seeding, in the combination geraniol at its IC30 (200 μM), read-out: IC50 5-FU, Caco-2 Growing) | annexin V labeling (flow cytometry) [5] | apoptotic DNA fragmentation ladders [5] | inhibition of the tumoral growth ([6]; 5-FU alone 20 mg/kg/day i.p. for 5 days) | inhibition of the tumoral growth ([6]; 5-FU alone 40 mg/kg/day i.p. for 5 days) | inhibition at 400 µM ([8]; read-out: inhibition of the increase in alkaline phosphatase activity) | inhibition at 400 µM ([8]; read-out: inhibition of the increase in aminopeptidase activity) | inhibition at 400 µM ([8]; read-out: inhibition of the increase of lactase activity) | inhibition at 400 µM ([8]; read-out: inhibition of the increase of sucrase activity) | IC30 of geraniol ([2]; Caco-2 cells at confluency) | IC30 of geraniol ([3]; growing Caco-2 cells) | cytotoxic effect (LDH release) [9] | inhibition of the tumoral growth ([6]; geraniol alone 150 mg/kg/day i.p. for 5 days)
1 | 25 µM | 2 µM |  |  | O=c1[nH]cc(F)c(=O)[nH]1 [5-FU, 5-fluorouracil] | did not modify brush-border membranes | 25% | 0.4 µM | absence of annexin V labeling | did not exhibit apoptotic DNA fragmentation ladders | no effect | 30% |  |  |  |  |  |  |  | 
2 |  |  | 0.7 µM |  | CCc1c2c(nc3ccc(OC(=O)N4CCC(N5CCCCC5)CC4)cc13)-c1cc3c(c(=O)n1C2)COC(=O)[C@]3(O)CC [CPT-11, irinotecan, reference compound] |  |  |  |  |  |  |  |  |  |  |  |  |  |  | 
3 |  |  |  | 200 ± 0.03 µM | CC(C)=CCC/C(C)=C/CO [geraniol] | microvilli were scarce, and they were shorter | 30% |  |  |  |  |  | ~50% | ~50% | ~70% | ~90% | 400 µM | 200 µM | no cytotoxic effect | 26%
